A value given as a limit tells only on which side of the number the result lay.

Two compounds from ChEMBL document CHEMBL1287678, “5-{2-[4-(2-methyl-5-quinolinyl)-1-piperazinyl]ethyl}-2(1H)-quinolinones and 3,4-dihydro-2(1H)-quinolinones: dual-acting 5-HT1 receptor antagonists and serotonin reuptake inhibitors. Part 3” (Bioorg Med Chem Lett, 2010) can be followed below.

For series [1], the target named is T1, 5-hydroxytryptamine receptor 1A (Homo sapiens) (UniProt P08908).
T1 sequence (whole entry): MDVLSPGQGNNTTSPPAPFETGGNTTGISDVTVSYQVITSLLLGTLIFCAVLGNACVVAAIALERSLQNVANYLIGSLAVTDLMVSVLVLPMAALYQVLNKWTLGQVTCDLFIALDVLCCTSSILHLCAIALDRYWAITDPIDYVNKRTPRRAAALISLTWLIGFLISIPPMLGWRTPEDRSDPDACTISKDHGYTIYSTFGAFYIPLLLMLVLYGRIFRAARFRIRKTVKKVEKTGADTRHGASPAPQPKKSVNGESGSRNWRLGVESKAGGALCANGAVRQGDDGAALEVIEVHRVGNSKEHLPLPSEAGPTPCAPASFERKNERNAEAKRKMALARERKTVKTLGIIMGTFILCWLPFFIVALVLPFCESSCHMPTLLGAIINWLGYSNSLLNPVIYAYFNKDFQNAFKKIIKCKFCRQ
The experiment in a line: Intrinsic activity at human 5-HT1A receptor expressed in HEK293 cells assessed as effect on GTPgammaS binding by scintillation proximity assay relative to 5HT. The format is functional, cell-based. In general terms: GTPγS is a poorly hydrolysed GTP analogue; its binding reports G protein activation.

For another series, the system named is Liver microsomes. The experiment in a line: Intrinsic clearance in human liver microsomes. The format is ADME, Microsome. (Liver microsomes are a subcellular fraction often used to study metabolism.)
Series [2] has as its target Voltage-gated inwardly rectifying potassium channel KCNH2 (Homo sapiens, UniProt Q12809). The series is described as follows: Displacement of [3H]-dofetilide in human hERG expressed in CHO cells by proximity assay. The format is cell-based. (In a radioligand displacement assay an active substance lowers the binding of a labelled ligand.)
Series [3] has as its target Sodium-dependent serotonin transporter (Homo sapiens, UniProt P31645). The series is described as follows: Displacement of [3H]-citalopram in human SERT expressed in LLCPK cells by filtration assay. The format is cell-based.
A short description of series [4]: Half life in rat at 0.5 mg/kg, iv and 1 mg/kg, po. The format is ADME, organism-based. To be noted: in vivo.
The nature of series [5]: Oral bioavailability in rat at 1 mg/kg. The format is ADME, organism-based. Particulars: in vivo.
Series [6] can be described thus: Blood clearance in rat at 0.5 mg/kg, iv and 1 mg/kg, po. The format is ADME, organism-based. To be noted: whole blood.
Series [7] addresses T2, 5-hydroxytryptamine receptor 1B (Homo sapiens, UniProt P28222). The series is described as follows: Intrinsic activity at human 5-HT1B receptor expressed in CHO cells assessed as effect on GTPgammaS binding by scintillation proximity assay relative to 5HT. The format is functional, cell-based.
Series [8] deals with T3, 5-hydroxytryptamine receptor 1A (Homo sapiens, UniProt P08908).
T3 sequence (P08908 whole entry): T1 sequence (whole entry)
The series is described as follows: Antagonist activity at human 5-HT1A receptor expressed in HEK293 cells assessed as inhibition of GTPgammaS binding by scintillation proximity assay. The format is functional, cell-based.

The target of series [9] is T2, 5-hydroxytryptamine receptor 1B. The experiment in a line: Agonist activity at human 5-HT1B receptor expressed in CHO cells assessed as stimulation of GTPgammaS binding by scintillation proximity assay. The format is functional, cell-based.
Series [10] concerns the target T4, 5-hydroxytryptamine receptor 1D (Homo sapiens, UniProt P28221). The experiment in a line: Agonist activity at human 5-HT1D receptor expressed in CHO cells assessed as stimulation of GTPgammaS binding by scintillation proximity assay. The format is functional, cell-based.
Series [11] addresses T4, 5-hydroxytryptamine receptor 1D. The experiment in a line: Intrinsic activity at human 5-HT1D receptor expressed in CHO cells assessed as effect on GTPgammaS binding by scintillation proximity assay relative to 5HT. The format is functional, cell-based.
The nature of series [12]: Ratio of drug level in brain to blood in rat at 0.5 mg/kg, iv and 1 mg/kg, po. The format is ADME, organism-based. Particulars: brain / whole blood.
Series [13] can be described thus: Volume of distribution at steady state in rat at 0.5 mg/kg, iv and 1 mg/kg, po. The format is ADME, organism-based. To be noted: in vivo, read-out: Vdss.
Series [14] has as its target T3, 5-hydroxytryptamine receptor 1A. The series is described as follows: Agonist activity at human 5-HT1A receptor expressed in HEK293 cells assessed as stimulation of GTPgammaS binding by scintillation proximity assay. The format is functional, cell-based.
Series [15] addresses T2, 5-hydroxytryptamine receptor 1B. The experiment in a line: Antagonist activity at human 5-HT1B receptor expressed in CHO cells assessed as inhibition of GTPgammaS binding by scintillation proximity assay. The format is functional, cell-based.

T4 sequence (P28221 whole entry): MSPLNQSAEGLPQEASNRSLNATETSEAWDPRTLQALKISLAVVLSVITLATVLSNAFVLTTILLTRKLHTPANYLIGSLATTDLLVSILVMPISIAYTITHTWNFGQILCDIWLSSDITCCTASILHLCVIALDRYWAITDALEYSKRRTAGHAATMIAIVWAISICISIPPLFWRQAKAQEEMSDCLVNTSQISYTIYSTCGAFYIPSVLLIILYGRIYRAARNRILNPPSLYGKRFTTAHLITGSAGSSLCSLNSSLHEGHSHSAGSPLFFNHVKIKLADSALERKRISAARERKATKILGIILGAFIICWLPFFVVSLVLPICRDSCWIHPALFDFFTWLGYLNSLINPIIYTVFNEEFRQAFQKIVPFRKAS
T2 sequence (P28222 whole entry): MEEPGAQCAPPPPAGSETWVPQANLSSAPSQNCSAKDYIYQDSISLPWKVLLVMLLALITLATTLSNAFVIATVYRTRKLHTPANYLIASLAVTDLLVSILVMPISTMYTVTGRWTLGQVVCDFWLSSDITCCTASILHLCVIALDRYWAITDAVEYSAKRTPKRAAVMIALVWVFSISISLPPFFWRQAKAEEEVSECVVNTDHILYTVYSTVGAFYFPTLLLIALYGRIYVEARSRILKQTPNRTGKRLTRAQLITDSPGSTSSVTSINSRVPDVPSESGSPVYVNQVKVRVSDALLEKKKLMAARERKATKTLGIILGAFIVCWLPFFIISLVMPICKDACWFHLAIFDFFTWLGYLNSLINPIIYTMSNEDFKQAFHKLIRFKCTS
Sequence of Sodium-dependent serotonin transporter (P31645 whole entry): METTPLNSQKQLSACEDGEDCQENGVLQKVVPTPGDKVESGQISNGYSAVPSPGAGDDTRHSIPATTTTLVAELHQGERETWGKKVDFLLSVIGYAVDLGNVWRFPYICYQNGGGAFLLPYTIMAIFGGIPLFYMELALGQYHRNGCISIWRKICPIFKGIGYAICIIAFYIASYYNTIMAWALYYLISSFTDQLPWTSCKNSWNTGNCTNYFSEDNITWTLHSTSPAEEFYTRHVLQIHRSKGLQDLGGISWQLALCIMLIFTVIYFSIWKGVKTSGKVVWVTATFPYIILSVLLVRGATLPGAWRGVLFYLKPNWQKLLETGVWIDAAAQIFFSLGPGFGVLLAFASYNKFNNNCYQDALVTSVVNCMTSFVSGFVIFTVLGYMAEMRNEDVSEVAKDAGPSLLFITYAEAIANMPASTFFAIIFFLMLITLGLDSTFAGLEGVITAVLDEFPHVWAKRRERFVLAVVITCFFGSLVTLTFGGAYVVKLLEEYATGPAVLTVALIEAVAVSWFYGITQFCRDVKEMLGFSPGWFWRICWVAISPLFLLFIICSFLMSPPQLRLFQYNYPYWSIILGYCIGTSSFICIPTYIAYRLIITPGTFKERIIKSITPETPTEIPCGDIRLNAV
Sequence of Voltage-gated inwardly rectifying potassium channel KCNH2 (Q12809 whole entry): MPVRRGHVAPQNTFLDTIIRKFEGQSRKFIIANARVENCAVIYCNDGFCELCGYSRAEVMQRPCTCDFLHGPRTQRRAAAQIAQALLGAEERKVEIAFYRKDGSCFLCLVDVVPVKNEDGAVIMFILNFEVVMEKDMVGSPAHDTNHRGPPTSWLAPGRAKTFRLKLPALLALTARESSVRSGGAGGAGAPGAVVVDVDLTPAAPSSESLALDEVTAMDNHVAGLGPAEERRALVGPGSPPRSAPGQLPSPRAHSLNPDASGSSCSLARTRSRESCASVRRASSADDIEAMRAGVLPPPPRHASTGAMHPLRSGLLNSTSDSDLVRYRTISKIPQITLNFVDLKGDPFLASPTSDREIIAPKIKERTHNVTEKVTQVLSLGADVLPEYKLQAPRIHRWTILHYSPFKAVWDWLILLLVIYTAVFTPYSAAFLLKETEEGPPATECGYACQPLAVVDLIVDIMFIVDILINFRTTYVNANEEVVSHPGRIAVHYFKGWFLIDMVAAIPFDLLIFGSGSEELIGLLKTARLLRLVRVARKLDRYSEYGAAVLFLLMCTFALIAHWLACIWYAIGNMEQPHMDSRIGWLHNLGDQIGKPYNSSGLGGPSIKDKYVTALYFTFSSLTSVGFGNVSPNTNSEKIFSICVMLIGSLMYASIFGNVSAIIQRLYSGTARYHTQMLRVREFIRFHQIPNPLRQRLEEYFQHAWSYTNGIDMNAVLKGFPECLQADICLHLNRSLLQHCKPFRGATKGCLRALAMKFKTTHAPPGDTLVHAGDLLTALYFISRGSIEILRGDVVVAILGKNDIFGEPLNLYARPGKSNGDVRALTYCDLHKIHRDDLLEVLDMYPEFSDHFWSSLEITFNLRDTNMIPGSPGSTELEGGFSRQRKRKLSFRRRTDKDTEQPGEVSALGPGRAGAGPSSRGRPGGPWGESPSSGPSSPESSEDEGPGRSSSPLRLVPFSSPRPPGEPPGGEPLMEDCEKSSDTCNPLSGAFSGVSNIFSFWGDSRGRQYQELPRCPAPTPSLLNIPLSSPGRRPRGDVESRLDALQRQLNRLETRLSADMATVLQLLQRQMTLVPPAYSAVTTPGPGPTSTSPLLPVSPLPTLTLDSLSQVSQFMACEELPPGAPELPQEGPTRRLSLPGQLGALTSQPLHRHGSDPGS

As for `Cc1ccc2c(N3CCN(CCc4c(C)ccc5c4CCC(=O)N5)CC3)cccc2n1`, the Intrinsic activity in series [1] came out at 0.3; in series [7] it was 0.4; in series [11], 0.5. In addition, the CL in the series with Liver microsomes was < 0.5 mL/min/g. Besides, the Ki (commonly a measure of affinity in units of concentration, obtained from inhibition or displacement) is 3980 nM in [2], 50.1 nM in series [3] and 0.794 nM in [8]. Besides, the half-life (commonly the time in which the quantity being followed falls by half) in series [4] is 5.4 h. In addition, the bioavailability – broadly, the share of a dose that reaches the circulation, judged against a reference dose that is usually intravenous – in [5] came to 73%. In series [6], this compound showed a clearance of 7 mL/min/kg. Besides, the values for the EC50 in [9] and in series [10] were 200 nM and 5.01 nM, respectively. Further, the Kp (commonly tissue or fluid exposure divided by exposure in the circulation) in [12] turned out to be 0.8. Moreover, the Vd in series [13] is 3 L/kg.
Regarding `Cc1ccc2c(N3CCN(CCc4cccc5c4ccc(=O)n5C)CC3)cccc2n1`, the results for the Intrinsic activity in series [1], in series [7] and in series [11] were 0.4, 0 and 0.7, respectively. The same compound yielded a CL in the series with Liver microsomes of 1.2 mL/min/g. Moreover, the Ki in series [2] is 10000 nM; in series [3], 2.51 nM; in [15] it was 0.794 nM. The compound further gave a half-life in series [4] of 1.3 h. This compound also returned a bioavailability in series [5] of 37%. In series [6], this compound yielded a clearance of 32 mL/min/kg. Also, the EC50 – broadly, the concentration giving half of the maximal effect – in [10] is 1 nM; in [14], 0.0316 nM. Also, the concentration ratio (Kp) in series [12] came out at 1.1. Besides, the Vd in [13] is 2.1 L/kg.
